# In PubChem BioAssay AID298 (DTP/NCI, 2004):
# Values joined by “and” are separate entries in the source; they are usually repeats but may differ in a detail not shown here. Equal values may be shown once. Records with an inconclusive call do not appear.
# Tested on: MX-1 breast xenograft, intrarenal, nude mice, tumor weight
# Test: NCI In Vivo Anticancer Drug Screen. Data for tumor model Human Mammary Carcinoma MX-1 Xenograft (intrarenal inoculation) in NU/NU BALB/C (nude) mice
# Conditions: endpoint: mean tumor weight change, higher = larger tumour
# Procedure, shortened: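 Mice w/ transplanted tumors, drug vs vehicle; endpoint survival or tumor size; value = T/C.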
# [1] = dose: 50.0 mg/kg/injection, schedule: Q04DX003 (ip), vehicle: saline with Tween-80
# [2] = dose: 100.0 mg/kg/injection, schedule: Q04DX003 (ip), vehicle: saline with Tween-80
# [3] = dose: 150.0 mg/kg/injection, schedule: Q04DX003 (ip), vehicle: saline with Tween-80
# [4] = dose: 300.0 mg/kg/injection, schedule: Q04DX003 (ip), vehicle: saline with Tween-80
# [5] = dose: 600.0 mg/kg/injection, schedule: Q04DX003 (ip), vehicle: saline with Tween-80
# [6] = dose: 300.0 mg/kg/injection, schedule: Q04DX003 (sc), vehicle: saline with Tween-80
# [7] = dose: 600.0 mg/kg/injection, schedule: Q04DX003 (sc), vehicle: saline with Tween-80
# [8] = dose: 1200.0 mg/kg/injection, schedule: Q04DX003 (sc), vehicle: saline with Tween-80
# [9] = dose: 12.5 mg/kg/injection, schedule: Q04DX003 (ip), vehicle: saline with Tween-80
# [10] = dose: 25.0 mg/kg/injection, schedule: Q04DX003 (ip), vehicle: saline with Tween-80
smiles,measurement,setting,value
Cc1cc(SCC(=O)c2ccc(Br)cc2)cc(C)[o+]1,T/C,"dose: 50.0 mg/kg/injection, schedule: Q01DX010 (sc), vehicle: saline",91 % of control
same,T/C,"dose: 100.0 mg/kg/injection, schedule: Q01DX010 (sc), vehicle: saline",124 % of control
same,T/C,"dose: 200.0 mg/kg/injection, schedule: Q01DX010 (sc), vehicle: saline",71 % of control
same,T/C,"dose: 400.0 mg/kg/injection, schedule: Q01DX010 (sc), vehicle: saline",102 % of control
O=C(NNC(=O)c1cccc(C(=O)NNC(=O)c2ccc(Cl)c(Cl)c2)n1)c1ccc(Cl)c(Cl)c1,T/C,[1],106 % of control
same,T/C,[2],78 % of control
same,T/C,[3],73 % of control
same,T/C,"dose: 200.0 mg/kg/injection, schedule: Q04DX003 (ip), vehicle: saline with Tween-80",98 % of control
same,T/C,[4],64 % of control
same,T/C,"dose: 400.0 mg/kg/injection, schedule: Q04DX003 (ip), vehicle: saline with Tween-80",102 % of control
same,T/C,[5],65 % of control
c1ccc(-c2cc3cc4ccccc4cn3c2)cc1,T/C,[3],61 % of control
same,T/C,[4],108 % of control
same,T/C,[5],81 % of control
same,T/C,"dose: 1200.0 mg/kg/injection, schedule: Q04DX003 (ip), vehicle: saline with Tween-80",101 % of control
C[C@]12CCC(=O)C(O)=C1CC[C@@H]1[C@@H]2CC[C@]2(C)C(=O)CC[C@@H]12,T/C,"dose: 150.0 mg/kg/injection, schedule: Q04DX003 (ip), vehicle: Klucel (hydroxypropylcellulose) (HPC)",101 % of control
same,T/C,"dose: 300.0 mg/kg/injection, schedule: Q04DX003 (ip), vehicle: Klucel (hydroxypropylcellulose) (HPC)",96 % of control
same,T/C,"dose: 600.0 mg/kg/injection, schedule: Q04DX003 (ip), vehicle: Klucel (hydroxypropylcellulose) (HPC)",122 % of control
same,T/C,"dose: 1200.0 mg/kg/injection, schedule: Q04DX003 (ip), vehicle: Klucel (hydroxypropylcellulose) (HPC)",113 % of control
CCc1nc(N)nc(N)c1-c1ccc(Cl)c([N+](=O)[O-])c1,T/C,"dose: 18.75 mg/kg/injection, schedule: Q04DX003 (sc), vehicle: saline with Tween-80",99 % of control
same,T/C,"dose: 37.5 mg/kg/injection, schedule: Q04DX003 (sc), vehicle: saline with Tween-80",71 % of control
same,T/C,"dose: 75.0 mg/kg/injection, schedule: Q04DX003 (sc), vehicle: saline with Tween-80",82 % of control
COc1ccc(Cl)[n+]([O-])n1,T/C,"dose: 25.0 mg/kg/injection, schedule: Q04DX003 (sc), vehicle: Klucel (hydroxypropylcellulose) (HPC)",119 % of control
same,T/C,"dose: 50.0 mg/kg/injection, schedule: Q04DX003 (sc), vehicle: Klucel (hydroxypropylcellulose) (HPC)",111 % of control
same,T/C,"dose: 100.0 mg/kg/injection, schedule: Q04DX003 (sc), vehicle: Klucel (hydroxypropylcellulose) (HPC)",106 % of control
O=C1N[C@H]2[C@H](CS[C@H]2CCCCC(=O)N(CCP(c2ccccc2)c2ccccc2)CCP(c2ccccc2)c2ccccc2)N1,T/C,"dose: 600.0 mg/kg/injection, schedule: Q04DX003 (sc), vehicle: Klucel (hydroxypropylcellulose) (HPC)",108 % of control
same,T/C,"dose: 1200.0 mg/kg/injection, schedule: Q04DX003 (sc), vehicle: Klucel (hydroxypropylcellulose) (HPC)",97 % of control
same,T/C,"dose: 2400.0 mg/kg/injection, schedule: Q04DX003 (sc), vehicle: Klucel (hydroxypropylcellulose) (HPC)",115 % of control
C=Cc1cc(OC)c2c(c1)c(=O)oc1c2cc(OC)c2c(O)ccc(C3OC(C)C(O)C(C)(O)C3O)c21 (stereo unspecified),T/C,"dose: 37.5 mg/kg/injection, schedule: Q04DX003 (ip), vehicle: DMSO",95 % of control
same,T/C,"dose: 75.0 mg/kg/injection, schedule: Q04DX003 (ip), vehicle: DMSO",86 % of control
same,T/C,"dose: 150.0 mg/kg/injection, schedule: Q04DX003 (ip), vehicle: DMSO",79 % of control
same,T/C,"dose: 300.0 mg/kg/injection, schedule: Q04DX003 (ip), vehicle: DMSO",64 % of control
O=[N+]([O-])c1ccc(Sc2ccncn2)c([N+](=O)[O-])c1,T/C,"dose: 150.0 mg/kg/injection, schedule: Q04DX003 (sc), vehicle: saline with Tween-80",158 % of control
same,T/C,[6],153 % of control
same,T/C,[7],86 % of control
same,T/C,[8],115 % of control
O=NNc1cnccn1,T/C,"dose: 12.5 mg/kg/injection, schedule: Q04DX003 (ip), vehicle: water",53 % of control and 74 % of control
same,T/C,"dose: 25.0 mg/kg/injection, schedule: Q04DX003 (ip), vehicle: water",26 % of control (2×) and 41 % of control
same,T/C,"dose: 50.0 mg/kg/injection, schedule: Q04DX003 (ip), vehicle: water",7 % of control and 8 % of control and 16 % of control
O=C1C=CC(=CC=C2C=CN(CCCCCCCCCCCO)C=C2)C=C1,T/C,[9],89 % of control
same,T/C,[10],84 % of control
same,T/C,[1],69 % of control
N=C(N)c1ccc(Nc2ccc(-c3cc4ccc(C(=N)N)cc4[nH]3)cc2)cc1,T/C,"dose: 3.75 mg/kg/injection, schedule: Q04DX003 (ip), vehicle: saline",84 % of control
same,T/C,"dose: 7.5 mg/kg/injection, schedule: Q04DX003 (ip), vehicle: saline",69 % of control
same,T/C,"dose: 15.0 mg/kg/injection, schedule: Q04DX003 (ip), vehicle: saline",62 % of control
O=C1N[C@@H]([C@H]2CC[C@H](Cl)CN2)C(=O)N[C@H]1[C@H]1CC[C@H](Cl)CN1,T/C,"dose: 0.31 mg/kg/injection, schedule: Q01DX010 (sc), vehicle: water",62 % of control
same,T/C,"dose: 0.63 mg/kg/injection, schedule: Q01DX010 (sc), vehicle: water",14 % of control
same,T/C,"dose: 1.25 mg/kg/injection, schedule: Q01DX010 (sc), vehicle: water",1 % of control
same,T/C,"dose: 2.5 mg/kg/injection, schedule: Q01DX010 (sc), vehicle: water",-54 % of control
same,T/C,"dose: 5.0 mg/kg/injection, schedule: Q01DX010 (sc), vehicle: water",-87 % of control
COc1c2c(c(O)c3c4c(c(C)cc13)C1OC3(C(OC)OC5CC(C)(O)C(OC6CC(C)(O)C(O)C(C)O6)C(C)O5)OC1C(OC)(O4)C31CO1)C(=O)C(O)CC2OC1CC(C)(O)C(OC(C)=O)C(C)O1 (stereo unspecified),T/C,"dose: 0.06 mg/kg/injection, schedule: Q04DX003 (ip), vehicle: saline",61 % of control
same,T/C,"dose: 0.5 mg/kg/injection, schedule: Q04DX003 (ip), vehicle: saline",45 % of control
O=C1C=CC2OC(c3ccccc3)C(O)C2O1 (stereo unspecified),T/C,"dose: 25.0 mg/kg/injection, schedule: Q04DX003 (ip), vehicle: DMSO",114 % of control
same,T/C,"dose: 50.0 mg/kg/injection, schedule: Q04DX003 (ip), vehicle: DMSO",40 % of control
Cc1ccc(C(=Nc2ccccc2)N=P(c2ccccc2)(c2ccccc2)c2ccccc2)cc1,T/C,[1],68 % of control
same,T/C,[2],45 % of control
COc1oc(C2C/C(=C/C(C)=C/C(C)=C/C(C)=C/c3ccc([N+](=O)[O-])cc3)CO2)c(C)c(=O)c1C (stereo unspecified),T/C,"dose: 1.0 mg/kg/injection, schedule: Q04DX003 (ip), vehicle: saline",106 % of control
same,T/C,"dose: 2.0 mg/kg/injection, schedule: Q04DX003 (ip), vehicle: saline",48 % of control
CC1CN1P1(N2CC2C)=NP(N2CC2C)(N2CC2C)=NP(N2CC2C)(N2CC2C)=N1 (stereo unspecified),T/C,"dose: 75.0 mg/kg/injection, schedule: Q04DX003 (sc), vehicle: saline",51 % of control
same,T/C,"dose: 150.0 mg/kg/injection, schedule: Q04DX003 (sc), vehicle: saline",3 % of control
C/C(=N\NC(=S)N1CC2CCC(CC2)C1)c1cccc(C)n1,T/C,[9],77 % of control
same,T/C,[10],62 % of control
same,T/C,[1],78 % of control
O=C(CCCCCCC(=O)ON1C(=O)CCC1=O)ON1C(=O)CCC1=O,T/C,[6],110 % of control
same,T/C,[7],96 % of control
same,T/C,[8],81 % of control
same,T/C,"dose: 2400.0 mg/kg/injection, schedule: Q04DX003 (sc), vehicle: saline with Tween-80",85 % of control
CO[C@@]12[C@@H]3N[C@@H]3CN1C1=C(C(=O)C(NCCc3ccccn3)=C(C)C1=O)[C@@H]2COC(N)=O,T/C,"dose: 6.25 mg/kg/injection, schedule: Q04DX003 (ip), vehicle: saline with Tween-80",-51 % of control
same,T/C,[9],-84 % of control
same,T/C,[10],-92 % of control
same,T/C,[1],-42 % of control
COc1cc2c(c3c1c(=O)c1cccc(F)c1n3C)C=CC(C)(C)O2,T/C,"dose: 75.0 mg/kg/injection, schedule: Q04DX003 (ip), vehicle: Klucel (hydroxypropylcellulose) (HPC)",46 % of control
N#Cc1c(-c2ccc(F)cc2)c(-c2ccc(F)cc2)nn(CCO)c1=O,T/C,"dose: 50.0 mg/kg/injection, schedule: Q04DX003 (ip), vehicle: distilled water + Tween-80",109 % of control
same,T/C,"dose: 400.0 mg/kg/injection, schedule: Q04DX003 (ip), vehicle: distilled water + Tween-80",-28 % of control
O=C1c2cccc(NCCCNCCO)c2C(=O)c2cccc(NCCCNCCO)c21,T/C,"dose: 18.75 mg/kg/injection, schedule: Q04DX003 (ip), vehicle: acid diluted with saline",89 % of control
same,T/C,"dose: 37.5 mg/kg/injection, schedule: Q04DX003 (ip), vehicle: acid diluted with saline",171 % of control
